Data: PMC6131539, “Behavioral Effects of a Potential Novel TAAR1 Antagonist” (Frontiers in Pharmacology, 2018)

Legend:
Dopamine Transporter = Dopamine Transporter (Homo sapiens, UniProt Q01959); test: Fluorescent dopamine uptake assay in HEK293 cells stably expressing human HA-DAT; type: cell-based; design: expressed in transfected cells
Procedure: Fluorescent dopamine uptake assay kits were purchased from Molecular Devices (Sunnyvale, CA; catalog #: R6138). Stable cells expressing human HA-DAT were seeded on poly-D-lysine treated, black clear-bottom 96-well plates (Corning Catalog #: 3603) at a density of 1 × 10^5 cells/well, and incubated for 24 h prior to the start of the uptake experiment. […] The plates were then incubated for 30 min at 37°C. Following incubation, 100 μL of dye solution was added and fluorescence intensity was measured for 30 min at 37°C using the SpectraMax M3 (Molecular Devices, excitation: 440 nm, emission: 520 nm). The rate of reaction (slope of the curve in the linear range) was taken as the readout for the assay.
Data analyses were performed with Graphpad Prism 5.01 (GraphPad Software, Inc., La Jolla, CA). Linear regression analysis was used to quantify fluorescent dopamine transporter uptake activity. Dose response curves were fitted with non-linear curve fitting. Two-tailed Student’s t-tests or one-way ANOVA analysis with Dunnett’s post hoc correction was used where appropriate to determine differences between data sets.
The ability of compound 22 to directly disrupt uptake activity was assessed with a fluorescent uptake assay.
Error bars represent standard error of mean at N = 3.

[1] = test system: WT littermates (C57BL/6J × 129S2/Sv); test: Cocaine-induced locomotor activity, co-injection, WT littermates; type: in vivo, mice; conditions: 5, 15 and 25 mg/kg co-injected with cocaine 10 mg/kg
Procedure: The Taarl^-/- (TAAR1-KO) mice were obtained from Lundbeck ([Wolinsky et al., 2007]). All wild type (WT) and TAAR1-KO mice used for experiments were generated from TAAR1-KO heterozygous mice in a C57BL/6J x 129S1/Sv mixed background.
Experimentally naïve mice, of at least 12 weeks of age, were used for all behavioral experiments. The mice were randomly assigned to treatment or control groups, balanced by sex and weight. Locomotor activity was assessed using the automated locomotor analysis monitors (Omnitech Electronics, Columbus, OH, United States). The apparatus included four open field monitors. Each Open Field monitor consisted of sets of 16 light beams arrayed in the horizontal X and Y axes. The hardware detected beams broken by the animal, which allowed the software to determine the location of the mouse in the cage. Total distance covered by mice was used to characterize locomotor activity of the animals. The monitors were divided into four compartments (20 cm × 20 cm). Animals were tested individually for defined periods with 5-min intervals. The mice were first weighed and then placed into the apparatus, allowing for 30 min habituation. […] The locomotor activity was then measured for additional 1 h. […]
The locomotor activity was assessed for 60 min following the injection. […]

[2] = test system: WT littermates (C57BL/6J × 129S2/Sv); test: Basal locomotor activity in WT littermates of TAAR1-KO mice; type: in vivo; conditions: 5 and 25 mg/kg alone, 60 min
Procedure: The Taarl^-/- (TAAR1-KO) mice were obtained from Lundbeck ([Wolinsky et al., 2007]). All wild type (WT) and TAAR1-KO mice used for experiments were generated from TAAR1-KO heterozygous mice in a C57BL/6J x 129S1/Sv mixed background. Experimentally naïve mice, of at least 12 weeks of age, were used for all behavioral experiments. The mice were randomly assigned to treatment or control groups, balanced by sex and weight. Locomotor activity was assessed using the automated locomotor analysis monitors (Omnitech Electronics, Columbus, OH, United States). The apparatus included four open field monitors. Each Open Field monitor consisted of sets of 16 light beams arrayed in the horizontal X and Y axes. The hardware detected beams broken by the animal, which allowed the software to determine the location of the mouse in the cage. Total distance covered by mice was used to characterize locomotor activity of the animals. The monitors were divided into four compartments (20 cm × 20 cm). Animals were tested individually for defined periods with 5-min intervals. The mice were first weighed and then placed into the apparatus, allowing for 30 min habituation. […] The locomotor activity was then measured for additional 1 h. […] The locomotor activity was assessed for 60 min following the injection. […]

Chain of Dopamine Transporter (Q01959 with tags, fused parts or gaps H193Y/G195Y/DEL197-198/G199V/D200P/S201D/S202Y/G203A): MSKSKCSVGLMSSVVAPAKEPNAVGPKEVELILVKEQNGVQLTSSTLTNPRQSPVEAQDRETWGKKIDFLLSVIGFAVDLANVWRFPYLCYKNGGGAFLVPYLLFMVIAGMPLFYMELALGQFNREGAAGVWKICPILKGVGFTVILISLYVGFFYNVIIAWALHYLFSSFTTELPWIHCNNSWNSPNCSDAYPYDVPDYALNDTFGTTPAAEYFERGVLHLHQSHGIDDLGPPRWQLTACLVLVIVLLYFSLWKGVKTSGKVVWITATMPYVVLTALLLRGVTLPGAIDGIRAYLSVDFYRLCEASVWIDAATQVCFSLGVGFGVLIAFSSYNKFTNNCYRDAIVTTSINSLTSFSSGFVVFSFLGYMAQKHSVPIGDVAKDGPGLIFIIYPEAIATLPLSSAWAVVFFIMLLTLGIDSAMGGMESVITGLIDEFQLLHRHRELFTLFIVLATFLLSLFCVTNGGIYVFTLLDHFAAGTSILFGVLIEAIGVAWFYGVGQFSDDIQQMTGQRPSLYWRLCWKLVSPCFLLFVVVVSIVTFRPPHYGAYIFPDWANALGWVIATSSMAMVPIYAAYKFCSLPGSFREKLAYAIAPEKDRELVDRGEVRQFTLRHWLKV

What does the source list for `Clc1ccc(CNCc2ccc(Cn3cncn3)cc2)c(Cl)c1` [compound 22]?
effect on dopamine uptake activity (Dopamine Transporter; HEK293 cells stably expressing human HA-DAT, increasing doses): no effect on dopamine uptake activity; effect on cocaine dose response inhibition of dopamine uptake (Dopamine Transporter; co-treatment with 1, 10 and 100 μM compound 22): did not alter; effect on locomotor stimulating effects of cocaine [1]: significantly potentiate; effect on basal locomotor activity [2]: did not significantly alter
